Columns and labels:
NCI-H1581 cells = assay: Incucyte proliferation (confluence over time), prolonged treatment of NCI-H1581 cells; type: cell-based; conditions: 1 microM each agent
Experimental: (§1) Therefore, NCI-H1581 cells were plated onto 10 cm Collagen I coated plates and placed in an incubator at 37° C., 5% CO2. […] In the case of the parental cells with or without DMSO control, when the cells reached the confluence close to 100% they were trypsinized and re-plated back on the plate. […] After about 3 weeks from the initial treatment, cells were taken out of the plate by trypsinization and passaged on new plate for further expanding. […] (test 1)
The proliferation of the cells was followed using the Incucyt machine, measuring the confluence of the cells over time.

[1] = system: resistant NCI-H1581 xenografts; assay: In vivo study, resistant NCI-H1581 xenografts; parameters: species or system Athymic nude mice; conditions: compound A 25 mg/kg p.o. QD for 37 d
Experimental: Athymic nude mice were inoculated with resistant NCI-H1581 cells (10e^6 cells/200 μl with matrigel, ratio 1:1, into the inguinal region of the mice).
All mice (84) were put into groups (4) and treated from the day of the cell injection.
The mice were treated orally (po), normal volume (250 μl/25 g) once daily and this for 37 days (QD×37). Measurement of the tumor volume was done at day 0, 5, 12, 15, 20, 23, 27, 30, 33, 37.
At day 37 all animals were sacrificed.

[2] = system: Parental, unsorted H1581 cells; assay: Incucyte live cell imaging proliferation, parental unsorted H1581 cells; type: cell-based; parameters: dose or concentration left out as unconfirmed; conditions: four days
Experimental: Inhibition of growth of H1581^MET(+) cells by combination of FGFR and MET inhibitors. Parental, unsorted H1581 cells, and sorted H1581^Met(+) cells, subpopulation of H1581 cells that have high Met expression, were plated at 75000 cells per well in 24 well plate. […] Images were acquired every two hours. Proliferation of cells was presented as the mean of percentage of confluence±SD (n=2).

[3] = system: most sensitive cancer cell lines; assay: Alamar blue cell based proliferation assay, most sensitive cancer cell lines
Experimental: (§2) Cells were seeded in 180 μl of medium at optimized cell densities in black 96 well plates with clear flat bottom. The outer wells were filled with 180 μl of medium. Cells were incubated for 24 hours at 37° C. and 5% CO2.
(§3) Next day compound dilutions were prepared in a 96 well plate with round bottom (Corning #3365). A 50× dilution of the compound was prepared in medium, 4 μl of compound stock in 196 μl of medium in a 96 well plate (Corning #3585).
(§4) Compound/medium plates were placed on a shaker for 10 minutes and then 20 μl of compound in medium was added to the cells (10× dilution). Cells were incubated at 37° C. and 5% CO2 for 4 days until alamarBlue® readout.
(§5) After 4 days of incubation with compound: Add 40 μl of alamarBlue® ready to use mix to each well. Incubate plates at 37° C. and 5% CO2. Measure plates after 4 or 6 hours of incubation (depends on cell line). Shake plates and measure RFU at ex.: 544 nm and em.: 590 nm
(§6) The alamarBlue® Assay incorporates a fluorometric/colorimetric growth indicator based on detection of metabolic activity. Specifically, the system incorporates an oxidation-reduction (REDOX) indicator that both fluoresces and changes color in response to chemical reduction of growth medium resulting from cell growth.

Met oncogene = assay: Microarray gene expression profiling of resistant versus parental NCI-H1581 cells; type: cell-based; conditions: 1 microM, 1 day, 1 week and 2 weeks
Experimental: as §1

parental NCI-H1581 cells = assay: Alamar blue proliferation assay, parental NCI-H1581 cells; type: cell-based; conditions: for IC50: 4 days incubation
Experimental: as §1
(§7) Therefore the parental and resistant cells were profiled on phosphoRTK (receptor tyrosine kinase) arrays, and also for Met total protein expression and phosphorylation. The sensitivity of the cells to selected Met inhibitors (compound C and D) in the Alamar blue proliferation assay was also tested.
as §2, §3, §4, §5, §6

[4] = system: resistant NCI-H1581 cells; assay: Alamar blue proliferation assay, resistant NCI-H1581 cells; type: cell-based; conditions: for IC50: Resistant cells, 4 days incubation, repeated experiments
Experimental: The insensitive cells were isolated and profiled with the aim to determine the active signaling pathways that act as drivers for their survival and/or proliferation. Therefore, NCI-H1581 cells were plated onto 10 cm Collagen I coated plates and placed in an incubator at 37° C., 5% CO2. […] In the case of the parental cells with or without DMSO control, when the cells reached the confluence close to 100% they were trypsinized and re-plated back on the plate. In the compound treated plates outgrowth of resistant clones were observed. After about 3 weeks from the initial treatment, cells were taken out of the plate by trypsinization and passaged on new plate for further expanding. […] (test 1)
as §7, with “tested. […] Parental NCI-H1581 cells had very low detectable levels of Met protein, and no signal for Met protein phosphorylation (see FIG. 1).” for “tested.”
as §2, §3, §4, §5, §6

Met protein = assay: Western blotting of Met phosphorylation in resistant NCI-H1581 cells; type: cell-based; conditions: 300 nM, 30 minutes
Experimental: FIG. 1: Western blotting of protein lysates derived from parental and resistant NCI-H1581 cells treated without (−) or with (+) Met inhibitor, 300 nM compound C, for 30 minutes.
as §7, with “tested. […] Parental NCI-H1581 cells had very low detectable levels of Met protein, and no signal for Met protein phosphorylation (see FIG. 1).” for “tested.”

[5] = Homo sapiens, NCI-H1581, 96 h, Parental cells

Row | SMILES | proliferation of the parental NCI-H1581 cells (in words) (parental NCI-H1581 cells) | IC50 (parental NCI-H1581 cells; [5]) | proliferation of the resistant NCI-H1581 cells (in words) [4] | IC50 ([4]; Homo sapiens, NCI-H1581, 96 h) | IC50 [4] | other results
1 | COc1cc(OC)cc(N(CCNC(C)C)c2ccc3ncc(-c4cnn(C)c4)nc3c2)c1 [compound A, N-(3,5-dimethoxyphenyl)-N′-(1-methylethyl)-N-[3-(1-methyl-1H-pyrazol-4-yl)quinoxalin-6-yl]ethane-1,2-diamine] | – | – | – | – | – | emergence of resistance (outgrowth of insensitive cells) (NCI-H1581 cells; continuous treatment): after about three weeks emerging outgrowth of compound insensitive cells was observed; tumor growth [1]: did not have effect on tumor growth; cell growth (confluence) [2]: equally inhibited
2 | COc1cc(OC)c(F)c(N(Cc2ncc[nH]2)c2ccc3ncc(-c4cnn(C)c4)nc3n2)c1 [compound B, N-(2-fluoro-3,5-dimethoxyphenyl)-N-(1H-imidazol-2-ylmethyl)-3-(1-methyl-1H-pyrazol-4-yl)pyrido[2,3-b]pyrazin-6-amine] | – | – | – | – | – | IC50 [3]: < 10 nM; Met oncogene expression (microarray) (Met oncogene): upregulated in a time dependent manner
3 | Cn1cc(-c2ccc3nnc(C(F)(F)c4ccc5ncccc5c4)n3n2)cn1 [compound C, 6-{Difluoro[6-(1-methyl-1H-pyrazol-4-yl)[1,2,4]triazolo[4,3-b]pyridazin-3-yl]methyl}quinoline] | but not of the parental NCI-H1581 cells | > 30000 nM | strongly inhibited | – | – | Met phosphorylation (Met protein): down regulated significantly
4 | FC(F)(c1ccc2ncccc2c1)c1nnc2ccc(-c3ccncc3)nn12 [compound D, 6-[Difluoro(6-pyridin-4-yl[1,2,4]triazolo[4,3-b]pyridazin-3-yl)methyl]quinoline] | but not of the parental NCI-H1581 cells | > 10000 nM | strongly inhibited | 341 nM | 444 nM | IC50 (parental NCI-H1581 cells; Homo sapiens, NCI-H1581, 96 h, Parental cells + DMSO): > 30000 nM; proliferation (confluence of the cells over time) (NCI-H1581 cells): did not impact the proliferation
5 | C[C@@H](Oc1cc(-c2cnn(C3CCNCC3)c2)cnc1N)c1c(Cl)ccc(F)c1Cl [crizotinib, reference compound] | – | 6910 nM | – | 198 nM | 165 nM | IC50 (parental NCI-H1581 cells; Parental cells): 4950 nM
